Results published in ChEMBL document CHEMBL1128276, “Quinazoline antifolate thymidylate synthase inhibitors: replacement of glutamic acid in the C2-methyl series” (J Med Chem, 1995).

Columns and labels:
L1210 (1565) [1] = assay: Concentration to inhibit cell growth was measured on L1210:1565 cell line; type: functional, cell-based; settings: Mus musculus
L1210 (1565) [2] = assay: Relative resistance was measured in L1210:1565 cell line; type: functional, cell-based; settings: Mus musculus
Thymidylate synthase [3] = target: T1, Thymidylate synthase (Mus musculus, UniProt P07607); assay: Ability to inhibit Thymidylate synthase purified from mouse L1210 leukemia cells that overproduce thymidylate synthase (TS)
T1 sequence (P07607 whole entry): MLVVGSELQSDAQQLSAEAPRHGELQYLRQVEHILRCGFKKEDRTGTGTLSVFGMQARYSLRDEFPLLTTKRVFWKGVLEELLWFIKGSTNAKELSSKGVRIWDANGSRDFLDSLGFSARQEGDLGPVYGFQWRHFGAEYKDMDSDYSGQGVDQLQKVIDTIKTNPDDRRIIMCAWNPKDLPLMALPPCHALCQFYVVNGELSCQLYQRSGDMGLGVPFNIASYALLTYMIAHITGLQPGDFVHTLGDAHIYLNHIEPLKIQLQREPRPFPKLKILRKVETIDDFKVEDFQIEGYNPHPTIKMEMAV

L1210 [4] = assay: Inhibition of L1210 cell growth; type: functional, cell-based; settings: Mus musculus
Thymidylate synthase [5] = target: T1, Thymidylate synthase; assay: Inhibition of thymidylate synthase purified from mouse L1210 leukemia cells that overproduce thymidylate synthase (TS); type: cell-free
L1210 [6] = assay: Ability to inhibit cell growth was measured on L1210 cells(horse serum); type: functional, cell-based; settings: Mus musculus

SMILES | IC50 (L1210 (1565) [1]) [µM] | Relative resistance (L1210 (1565) [2]) [dimensionless ratio] | IC50 (Thymidylate synthase [3]) [µM] | IC50 (L1210 [4]) [µM] | IC50 (Thymidylate synthase [5]) [µM] | IC50 (L1210 [6]) [µM]
C#CCN(Cc1cc2c(O)nc(C)nc2cc1C)c1ccc(C(=O)NCc2cccc(C#N)c2)c(F)c1 | 0.09 | 0.38 | 0.048 | 0.23 |  | 
C#CCN(Cc1ccc2nc(C)nc(O)c2c1)c1ccc(C(=O)NCc2ccco2)cc1 |  |  |  |  | 1.42 | 6
C#CCN(Cc1ccc2nc(C)nc(O)c2c1)c1ccc(C(=O)NCCC)cc1 |  |  |  | 8.6 | 2.26 | 
C#CCN(Cc1ccc2nc(C)nc(O)c2c1)c1ccc(C(=O)N[C@@H](C(=O)O)c2ccc(F)cc2)cc1 |  |  | 0.089 | 74 |  | 
C#CCN(Cc1ccc2nc(C)nc(O)c2c1)c1ccc(C(=O)NCc2ccccc2[N+](=O)[O-])cc1 | 7.5 | 4.2 |  |  | 0.32 | 1.8
C#CCN(Cc1cc2c(O)nc(C)nc2cc1C)c1ccc(C(=O)NCc2cncs2)c(F)c1 | 0.24 | 0.39 | 0.11 | 0.62 |  | 
C#CCN(Cc1ccc2nc(C)nc(O)c2c1)c1ccc(C(=O)N[C@H](C)C(=O)O)cc1 |  |  |  | 25 | 0.15 | 
C#CCN(Cc1ccc2nc(C)nc(O)c2c1)c1ccc(C(=O)N[C@H](CCC(N)=O)C(=O)O)cc1 | 40 |  |  | 2.2 |  | 
C#CCN(Cc1ccc2nc(C)nc(O)c2c1)c1ccc(C(=O)N[C@@H](C(=O)O)c2ccccc2)cc1 | 30 | 2 |  | 15 | 0.034 | 
C#CCN(Cc1ccc2nc(C)nc(O)c2c1)c1ccc(C(=O)NCc2nccs2)cc1 | 5 | 0.83 | 0.76 | 6 |  | 
C#CCN(Cc1ccc2nc(C)nc(O)c2c1)c1ccc(C(=O)N[C@@H](C(=O)O)C(C)C)cc1 | 23 | 23 |  | 0.96 | 0.058 | 
C#CCN(Cc1ccc2nc(C)nc(O)c2c1)c1ccc(C(=O)NCc2cccc(C#N)c2)cc1 | 0.5 | 0.33 |  |  | 0.28 | 1.5
C#CCN(Cc1cc2c(O)nc(C)nc2cc1C)c1ccc(C(=O)NCc2nccs2)c(F)c1 | 0.5 | 0.76 | 0.1 | 0.66 |  | 
C#CCN(Cc1cc2c(O)nc(C)nc2cc1C)c1ccc(C(=O)NCc2cccc([N+](=O)[O-])c2)c(F)c1 | 0.18 | 0.86 |  | 0.21 | 0.044 | 
C#CCN(Cc1ccc2nc(C)nc(O)c2c1)c1ccc(C(=O)N[C@H](Cc2ccc([N+](=O)[O-])cc2)C(=O)O)cc1 |  |  |  | > 20 | 0.042 | 
C#CCN(Cc1ccc2nc(C)nc(O)c2c1)c1ccc(C(=O)NCc2ccc(Cl)cc2)cc1 |  |  |  |  | 7.7 | 70
C#CCN(Cc1ccc2nc(C)nc(O)c2c1)c1ccc(C(=O)NCc2cscn2)cc1 | 4.8 | 0.6 | 1.72 | 8 |  | 
C#CCN(Cc1ccc2nc(C)nc(O)c2c1)c1ccc(C(=O)NCc2nc(C)cs2)cc1 | 1.6 | 0.91 | 0.77 | 1.7 |  | 
C#CCN(Cc1cc2c(O)nc(C)nc2cc1C)c1ccc(C(=O)N[C@H](CCC(=O)O)C(=O)O)c(F)c1 | 5.92 | 74 |  | 0.08 | 0.009 | 
C#CCN(Cc1ccc2nc(C)nc(O)c2c1)c1ccc(C(=O)N[C@H](Cc2ccccc2)C(=O)O)cc1 |  |  |  | 41 | 0.17 | 
C#CCN(Cc1ccc2nc(C)nc(O)c2c1)c1ccc(C(=O)Nc2ccccc2)cc1 |  |  |  | 11 | 1.82 | 

SMILES | IC50 (L1210 (1565) [1]) [µM] | Relative resistance (L1210 (1565) [2]) [dimensionless ratio] | IC50 (Thymidylate synthase [3]) [µM] | IC50 (L1210 [4]) [µM] | IC50 (Thymidylate synthase [5]) [µM] | IC50 (L1210 [6]) [µM]
C#CCN(Cc1cc2c(O)nc(C)nc2cc1C)c1ccc(C(=O)N[C@@H](C(=O)O)c2cccc([N+](=O)[O-])c2)c(F)c1 | 1.25 | 0.51 |  | 2.45 | 0.0044 | 
C#CCN(Cc1ccc2nc(C)nc(O)c2c1)c1ccc(C(=O)NCC)cc1 |  |  |  | 7.2 | 22.9 | 
C#CCN(Cc1ccc2nc(C)nc(O)c2c1)c1ccc(C(=O)NCc2ccsc2)cc1 |  |  |  | 5.5 | 1.46 | 
C#CCN(Cc1ccc2nc(C)nc(O)c2c1)c1ccc(C(=O)NCc2cccc([N+](=O)[O-])c2)cc1 | 0.4 | 0.37 |  |  | 0.11 | 1.2
C#CCN(Cc1ccc2nc(C)nc(O)c2c1)c1ccc(C(=O)NCc2ccccn2)cc1 | 5 | 1.28 |  |  | 0.45 | 3.9
C#CCN(Cc1cc2c(O)nc(C)nc2cc1C)c1ccc(C(=O)N[C@@H](C(=O)O)C(C)(C)C)c(F)c1 | 5.28 | 6 | 0.007 | 0.88 |  | 
C#CCN(Cc1ccc2nc(C)nc(O)c2c1)c1ccc(C(=O)NCc2cncs2)cc1 | 0.4 | 0.36 |  | 1.1 | 0.86 | 
C#CCN(Cc1ccc2nc(C)nc(O)c2c1)c1ccc(C(=O)NC)cc1 |  |  |  | 25 | 4.2 | 
C#CCN(Cc1ccc2nc(C)nc(O)c2c1)c1ccc(C(=O)NCC(=O)O)cc1 |  |  |  | > 100 | 0.52 | 
C#CCN(Cc1ccc2nc(C)nc(O)c2c1)c1ccc(C(=O)NCc2ccoc2)cc1 |  |  |  | 5.5 | 1.38 | 
C#CCN(Cc1cc2c(O)nc(C)nc2cc1C)c1ccc(C(=O)NCc2ccccn2)c(F)c1 | 0.52 | 0.84 | 0.114 | 0.62 |  | 
C#CCN(Cc1ccc2nc(C)nc(O)c2c1)c1ccc(C(=O)N[C@@H](C(=O)O)c2cccc([N+](=O)[O-])c2)cc1 | 13 | 1.4 |  | 9 | 0.024 | 
C#CCN(Cc1ccc2nc(C)nc(O)c2c1)c1ccc(C(=O)N[C@@H](C(=O)O)c2cccc(O)c2)cc1 |  |  | 0.16 | 90 |  | 
C#CCN(Cc1ccc2nc(C)nc(O)c2c1)c1ccc(C(=O)N[C@@H](C(=O)O)C(C)(C)C)cc1 | 14 | 7 |  | 2 | 0.058 | 
C#CCN(Cc1ccc2nc(C)nc(O)c2c1)c1ccc(C(=O)N[C@H](CCC(=O)O)C(=O)O)cc1 | 8.2 |  |  | 0.09 |  | 
C#CCN(Cc1cc2c(O)nc(C)nc2cc1C)c1ccc(C(=O)N[C@@H](C(=O)O)C(C)C)c(F)c1 | 2.91 | 1.71 | 0.006 | 1.7 |  | 
C#CCN(Cc1ccc2nc(C)nc(O)c2c1)c1ccc(C(=O)NCc2ccc([N+](=O)[O-])cc2)cc1 |  |  |  |  | 0.32 | 2.2
C#CCN(Cc1ccc2nc(C)nc(O)c2c1)c1ccc(C(=O)N[C@H](CCC)C(=O)O)cc1 | 34 |  |  | 2.5 |  | 
C#CCN(Cc1ccc2nc(C)nc(O)c2c1)c1ccc(C(=O)NCc2ccccc2)cc1 |  |  |  | 4 | 0.72 | 
C#CCN(Cc1ccc2nc(C)nc(O)c2c1)c1ccc(C(=O)NCc2cccc(C(=O)O)c2)cc1 |  |  |  |  | 0.27 | 85
